Where a SMILES comes first, the peptide text is derived from it.
Assays:
Endothelin-1 receptor = target: T1, Endothelin-1 receptor (Rattus norvegicus, UniProt P26684); assay: Ability to inhibit binding of [125I]ET1 to membranes prepared from A10 rat thoracic aorta smooth muscle Endothelin A receptor; format: tissue-based
T1 sequence (P26684 whole entry): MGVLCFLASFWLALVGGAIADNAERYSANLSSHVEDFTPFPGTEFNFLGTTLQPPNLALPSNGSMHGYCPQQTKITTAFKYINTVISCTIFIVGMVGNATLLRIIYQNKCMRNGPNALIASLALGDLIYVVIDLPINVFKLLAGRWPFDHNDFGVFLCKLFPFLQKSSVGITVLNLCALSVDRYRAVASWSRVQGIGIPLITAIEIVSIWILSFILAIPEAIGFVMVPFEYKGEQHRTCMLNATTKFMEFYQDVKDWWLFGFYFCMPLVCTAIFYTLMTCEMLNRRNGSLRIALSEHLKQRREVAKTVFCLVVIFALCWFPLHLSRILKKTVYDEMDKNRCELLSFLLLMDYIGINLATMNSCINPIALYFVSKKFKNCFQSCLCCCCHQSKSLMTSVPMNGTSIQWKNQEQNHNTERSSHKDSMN

[1] = target: T2, Endothelin receptor type B (Rattus norvegicus, UniProt P21451); assay: Ability to inhibit binding of [125I]-ET-1 to membranes prepared from […] rat cerebellum (Endothelin B receptor); format: tissue-based
T2 sequence (P21451 whole entry): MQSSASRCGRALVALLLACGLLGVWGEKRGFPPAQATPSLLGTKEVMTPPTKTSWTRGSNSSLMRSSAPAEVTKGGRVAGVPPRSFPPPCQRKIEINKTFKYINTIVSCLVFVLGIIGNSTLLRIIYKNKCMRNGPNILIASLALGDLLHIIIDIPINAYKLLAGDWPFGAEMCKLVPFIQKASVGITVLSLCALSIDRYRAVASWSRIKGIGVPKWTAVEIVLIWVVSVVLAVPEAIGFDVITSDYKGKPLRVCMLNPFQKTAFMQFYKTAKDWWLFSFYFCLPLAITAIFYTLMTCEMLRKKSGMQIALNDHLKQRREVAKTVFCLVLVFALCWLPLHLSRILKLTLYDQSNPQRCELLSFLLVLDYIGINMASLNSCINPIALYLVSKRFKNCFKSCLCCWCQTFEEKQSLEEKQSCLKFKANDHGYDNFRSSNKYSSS

Ki (Endothelin-1 receptor) [nM] | Ki [1] [nM] | Structure (SMILES)
18 | 1700 | Cc1noc(NS(=O)(=O)c2ccccc2-c2ccc(CC(C)C)cc2)c1C
4.7 | 1700 | Cc1noc(NS(=O)(=O)c2ccccc2-c2ccc(CC(C)C)cc2N)c1C
29 | 3700 | CCCNc1cc(CC(C)C)ccc1-c1ccccc1S(=O)(=O)Nc1onc(C)c1C
100 | 12000 | Cc1noc(NS(=O)(=O)c2ccccc2-c2ccc(CC(C)C)cc2C(N)=O)c1C
2100 | – | Cc1noc(NS(=O)(=O)c2ccccc2Oc2ccccc2)c1C
14 | 2200 | CNc1cc(CC(C)C)ccc1-c1ccccc1S(=O)(=O)Nc1onc(C)c1C
190 | 8400 | Cc1noc(NS(=O)(=O)c2ccccc2-c2ccc(OCc3ccccc3)cc2)c1C
24000 | > 200000 | CC(C)Cc1ccc(-c2ccccc2S(=O)(=O)Nc2onc3c2CCCC3)cc1
74 | 54000 | COc1cc(CC(C)C)ccc1-c1ccccc1S(=O)(=O)Nc1onc(C)c1C
1200 | 7400 | Cc1noc(NS(=O)(=O)c2ccc(NC(=O)CN)cc2-c2ccc(CC(C)C)cc2)c1C
110 | 170000 | Cc1noc(NS(=O)(=O)c2ccccc2-c2ccc(S(=O)(=O)C(C)C)cc2)c1C
970 | 100000 | Cc1cnoc1NS(=O)(=O)c1ccccc1-c1ccc(CC(C)C)cc1
– | 26000 | Cc1noc(NS(=O)(=O)c2ccccc2-c2ccc(CC(C)C)cc2C(=O)O)c1C
42 | 4000 | Cc1noc(NS(=O)(=O)c2cccc(OCC(=O)O)c2-c2ccc(CC(C)C)cc2)c1C
1300 | 19000 | Cc1cccc(-c2ccc(CC(C)C)cc2)c1S(=O)(=O)Nc1onc(C)c1C
60 | 20000 | Cc1noc(NS(=O)(=O)c2ccccc2-c2ccc(N(C)C(C)C)cc2)c1C
500 | 24000 | Cc1noc(NS(=O)(=O)c2cc(O)ccc2-c2ccc(CC(C)C)cc2)c1C
43 | 5400 | CNC(=O)Nc1cc(CC(C)C)ccc1-c1ccccc1S(=O)(=O)Nc1onc(C)c1C
2.7 | 2300 | Cc1noc(NS(=O)(=O)c2cccc(OCCO)c2-c2ccc(CC(C)C)cc2)c1C
28 | 15000 | CCCc1ccc(-c2ccccc2S(=O)(=O)Nc2onc(C)c2C)cc1
– | 9800 | CC(=O)Nc1ccc(S(=O)(=O)Nc2onc(C)c2C)c(-c2ccc(CC(C)C)cc2)c1
400 | 44000 | CC(C)Cc1ccc(-c2ccccc2S(=O)(=O)Nc2ccc(Cl)nn2)cc1
6.3 | 1400 | CCNc1cc(CC(C)C)ccc1-c1ccccc1S(=O)(=O)Nc1onc(C)c1C
– | 30000 | Cc1[n-][o+]c(NS(=O)(=O)c2ccccc2-c2ccc(CC(C)C)cc2)c1[N+](=O)[O-]
700 | – | Cc1noc(NS(=O)(=O)c2ccccc2C(F)(F)F)c1C

Ki (Endothelin-1 receptor) [nM] | Ki [1] [nM] | Structure (SMILES)
40 | > 200000 | Cc1noc(NS(=O)(=O)c2ccccc2-c2ccccc2CO)c1C
20 | 1300 | Cc1noc(NS(=O)(=O)c2ccccc2-c2ccc(CC(C)C)cc2CO)c1C
330 | > 100000 | Cc1noc(NS(=O)(=O)c2ccccc2-c2ccc(CC(C)C)cc2N(C)C)c1C
34 | 2900 | Cc1noc(NS(=O)(=O)c2ccccc2-c2ccc(CC(C)C)cc2NC(C)C)c1C
2 | 1200 | Cc1noc(NS(=O)(=O)c2ccccc2-c2ccc(CC(C)C)cc2CNC=O)c1C
7200 | 42000 | CCOC(=O)c1c(C)noc1NS(=O)(=O)c1ccccc1-c1ccc(CC(C)C)cc1
3500 | – | Cc1[n-][o+]c(NS(=O)(=O)c2ccccc2[N+](=O)[O-])c1C
37 | 1900 | CCCCc1ccc(-c2ccccc2S(=O)(=O)Nc2onc(C)c2C)cc1
6400 | > 200000 | Cc1noc(NS(=O)(=O)c2ccccc2-c2ccc(CC(C)C)cc2)c1Cc1ccccc1
61 | 15000 | Cc1noc(NS(=O)(=O)c2ccccc2-c2ccc(C(C)(C)C)cc2)c1C
– | > 200000 | Cc1noc(NS(=O)(=O)c2ccccc2-c2ccccc2)c1C
600 | – | Cc1noc(NS(=O)(=O)c2ccccc2C(C)C)c1C
5800 | 38000 | Cc1noc(NS(=O)(=O)c2ccc(NC(=O)c3ccccc3)cc2-c2ccc(CC(C)C)cc2)c1C
50 | 17000 | Cc1noc(NS(=O)(=O)c2ccccc2-c2ccc(NC(C)C)cc2)c1C
6.4 | 1600 | Cc1noc(NS(=O)(=O)c2ccccc2-c2ccc(CC(C)C)cc2NCCO)c1C
80 | 30000 | Cc1noc(NS(=O)(=O)c2ccccc2-c2ccc(CCC(C)C)cc2)c1C
17 | 1500 | Cc1noc(NS(=O)(=O)c2ccccc2-c2ccc(OC(C)C)cc2)c1C
32 | 2800 | Cc1noc(NS(=O)(=O)c2ccccc2-c2ccc(OCC(C)C)cc2)c1C
16 | > 200000 | Cc1noc(NS(=O)(=O)c2ccccc2-c2ccccc2N)c1C
17 | 6900 | Cc1noc(NS(=O)(=O)c2ccccc2-c2ccc(CC(C)C)cc2NC=O)c1C
39 | 5700 | Cc1noc(NS(=O)(=O)c2ccccc2-c2ccc(SC(C)C)cc2)c1C
50 | 19000 | Cc1noc(NS(=O)(=O)c2ccccc2-c2ccc(C(C)C)cc2)c1C
– | > 200000 | Cc1noc(NS(=O)(=O)c2ccccc2-c2ccc(C(=O)O)cc2)c1C
112 | > 200000 | Cc1noc(NS(=O)(=O)c2ccccc2-c2cccc(N(C)C)c2)c1C
> 20000 | > 200000 | Cc1noc(NS(=O)(=O)c2cc(OCc3ccccc3)ccc2-c2ccc(CC(C)C)cc2)c1C

Ki (Endothelin-1 receptor) [nM] | Ki [1] [nM] | Structure (SMILES)
54 | 6000 | Cc1noc(NS(=O)(=O)c2ccccc2-c2ccc(N(C)C)cc2)c1C
3900 | 50000 | COc1cc(OC)nc(NS(=O)(=O)c2ccccc2-c2ccc(CC(C)C)cc2)n1
560 | > 200000 | Cc1noc(NS(=O)(=O)c2ccccc2-c2ccc(S(=O)(=O)N(C)C)cc2)c1C
20 | 12000 | Cc1noc(NS(=O)(=O)c2ccccc2-c2ccc(CC(C)C)cc2F)c1C
140 | > 200000 | Cc1noc(NS(=O)(=O)c2ccccc2-c2ccccc2[N+](=O)[O-])c1C
89 | 12000 | Cc1noc(NS(=O)(=O)c2ccccc2-c2ccc(CC(C)C)cc2NCC(=O)O)c1C
55 | 23000 | Cc1ccc(-c2ccccc2S(=O)(=O)Nc2onc(C)c2C)cc1
190 | 5600 | Cc1noc(NS(=O)(=O)c2ccccc2-c2cccc(CC(C)C)c2)c1C
5 | 19000 | Cc1cc(CC(C)C)ccc1-c1ccccc1S(=O)(=O)Nc1onc(C)c1C
550 | 1900 | Cc1noc(NS(=O)(=O)c2ccc(NCC(=O)O)cc2-c2ccc(CC(C)C)cc2)c1C
110 | 4100 | Cc1noc(NS(=O)(=O)c2ccccc2-c2ccc(CC(C)(C)C)cc2)c1C
370 | 6200 | COc1ccc(S(=O)(=O)Nc2onc(C)c2C)c(-c2ccc(CC(C)C)cc2)c1
14 | 2100 | Cc1noc(NS(=O)(=O)c2ccc(N)cc2-c2ccc(CC(C)C)cc2)c1C
103 | > 200000 | Cc1noc(NS(=O)(=O)c2ccccc2-c2ccccc2N(C)C)c1C
5 | 940 | Cc1noc(NS(=O)(=O)c2cccc(O)c2-c2ccc(CC(C)C)cc2)c1C
16 | 2000 | COc1cccc(S(=O)(=O)Nc2onc(C)c2C)c1-c1ccc(CC(C)C)cc1
33 | 250000 | COc1ccc(-c2ccccc2S(=O)(=O)Nc2onc(C)c2C)cc1
8 | 9800 | Cc1noc(NS(=O)(=O)c2ccccc2-c2ccc(CC(C)C)cc2O)c1C
100 | 9600 | Cc1noc(NS(=O)(=O)c2ccccc2-c2ccc(CC(C)C)cc2CN)c1C
62 | > 200000 | Cc1noc(NS(=O)(=O)c2ccccc2-c2cccc(N)c2)c1C
13 | 2000 | Cc1onc(NS(=O)(=O)c2ccccc2-c2ccc(CC(C)C)cc2)c1C
4700 | – | Cc1noc(NS(=O)(=O)c2ccccc2F)c1C
55 | > 200000 | Cc1noc(NS(=O)(=O)c2cccc3c(N(C)C)cccc23)c1C [BMS-182874]
40 | – | CC(C)C[C@@H]1NC(=O)[C@@H](C(C)C)NC(=O)[C@@H]2CCCN2C(=O)[C@@H](CC(=O)O)NC(=O)[C@@H](Cc2c[nH]c3ccccc23)NC1=O [BQ-123] (HELM PEPTIDE1{L.[dW].[dD].P.[dV]}$PEPTIDE1,PEPTIDE1,1:R1-5:R2$$$V2.0)

Reference: ChEMBL document CHEMBL1131435, “Biphenylsulfonamide endothelin antagonists: structure-activity relationships of a series of mono- and disubstituted analogues and pharmacology of the orally active endothelin antagonist 2'-amino-N- (3,4-dimethyl-5-isoxazolyl)-4'-(2-methylpropyl)[1, 1'-biphenyl]-2-sulfonamide (BMS-187308)” (J Med Chem, 1998)
